What was measured:
[1] = tested on: staphylococcus ATTC11632(Sr); test: Antibacterial activity, zone of inhibition, penicillin resistant Sr strain; type: cell-based
Description: (§1) Next, the antibacterial activity of the prepared sulfur-containing BPA-FBz compounds is evaluated using two strains of staphylococcus ATTC6341(Sa) and ATTC11632(Sr), and the results are shown in Table 2. In particular, the Sa strain and the Sr strain have different sensitivities to antibiotics. The Sa strain is penicillin sensitive, and the Sr strain is penicillin resistant, and ampicillin is used as positive control. It can be known from Table 2 that, none of BPA-FBz and sulfur-containing BPA-FBz compounds having low sulfur content (i.e., compounds 1 and 2) has antibacterial activity.

[2] = tested on: staphylococcus ATTC6341(Sa); test: Antibacterial activity, zone of inhibition, penicillin sensitive Sa strain; type: cell-based
Description: as §1

[3] = dash = no antibacterial activity

CC(C)(c1ccc2c(c1)CN(Cc1ccco1)CO2)c1ccc2c(c1)CN(Cc1ccco1)CO2 [BPA-FBz, bis(3-furfuryl-3,4-dihydro-2H-1,3-benzoxazinyl)isopropane]
antibacterial activity (in words) [1]: none | antibacterial activity (in words) [2]: none

CC1(C)S[C@@H]2[C@H](NC(=O)[C@H](N)c3ccccc3)C(=O)N2[C@H]1C(=O)O [Ampicillin, ampicillin]
Zone of inhibition [1, 3]: 9.0 mm | Zone of inhibition [2, 3]: 34.0 mm
